# Patent US20210238551A1, “Method for Generating Regulatory T Cells” (Osaka University, priority 2018, published 2021)
# How the values were obtained:
# [1] = tested on: mouse naïve T cells; assay: Bisulfite sequencing of regulatory T cell-specific demethylation in regulatory T cells induced from mouse naïve T cells; assay type: cell-based; conditions: 10 μg/ml or 30 μg/ml ascorbic acid in basal medium, Example 1 culture system, FIG. 3
# Procedure: (§1) Genomic DNA was obtained from induced cells, treated with MethylEasy Xceed Rapid DNA Bisulphite Modification Kit (Human Genetic Signatures), and then examined for demethylations in genes specific to regulatory T cells. The demethylations in each gene were analyzed by using known methods and primers (Floess et al. (2007) PloS Biology Volume 5, Issue 2, e38, and Ohkura et al. (2012) Immunity 37(5) 785-799).
# (§2) For the analysis in mouse Foxp3 CNS2 region, 5′-[…]-3′ (SEQ ID NO: 1) was used as the primer on the forward side, and 5′-[…]-3′ (SEQ ID NO: 2) was used as the primer on the reverse side. For the analysis in human Foxp3 CNS2 region, 5′-[…]-3′ (SEQ ID NO: 3) was used as the primer on the forward side, and 5′-[…]-3′ (SEQ ID NO: 4) was used as the primer on the reverse side.
# Mouse naïve T cells were obtained from lymph nodes of eFox reporter mice by FACS. […] We analyzed regulatory T cell-specific demethylation sites and commonly methylation sites in Foxp3, CTLA4, Eos, and Helios. […]
# [2] = tested on: human CD4+ CD25- CD45RA+ T cells; assay: Bisulfite sequencing of demethylation in Foxp3 CNS2 region in regulatory T cells induced from human T cells; assay type: cell-based; conditions: combined with ascorbic acid, FIG. 13
# Procedure: as §1, §2
# Human CD4^+ CD25^− CD45RA^+ T cells (human T cells) were stimulated in the basal medium comprising anti-CD3 antibody, anti-CD28 antibody, and IL-2 for 3 days. The cells were then cultured for pretreatment in the basal medium supplemented with only IL-2 for 4 days. […]
# [3] = tested on: human T cells; conditions: existing methods, Non-patent literature 3; cited from earlier work
smiles,measurement,setting,value
O=C1O[C@H]([C@@H](O)CO)C(O)=C1O [ascorbic acid],degree of demethylations at regulatory T cell-specific sites on adding ascorbic acid,[1],degree of the demethylations was further increased
same,demethylation effect in human T cell-derived regulatory T cells,[2],demethylation effect of ascorbic acid was also observed
same,induction of regulatory T cell-specific demethylations in human T cells,[3],cannot induce regulatory T cell-specific demethylations in human T cells
